# Reference: PubChem BioAssay AID1845207 (Molecular Pharmacology Branch, DTP, NCI, 2023)
# Tested on: NCI-H1876 tumor spheroid viability
# Test: Anticancer human tumor NCI-H1876 cell line growth inhibition;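 also: spheroids exposed to compounds for seven days before the viability read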;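 as to viability, T/C: percent of DMSO vehicle control viability so 100% = vehicle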
# Conditions: spheroids with HUVEC and MSC; for IC50: curve of first compound; for viability, T/C: stronger effect = lower value
# In short: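 Single agents and combinations were tested on spheroids built from tumor cells plus HUVEC and hMSC, at half-log dilutions starting at or near clinical Cmax, else 10 microM; final DMSO 0.25% (v/v).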
# [1] = second compound 0.003 µM, first compound 0.0316 µM
# [2] = second compound 0.003 µM, first compound 0.1 µM
# [3] = second compound 0.003 µM, first compound 0.316 µM
# [4] = second compound 0.003 µM, first compound 1 µM
# [5] = second compound 0.003 µM, first compound 3.16 µM
# [6] = second compound 0.003 µM, first compound 10 µM
# [7] = second compound 0.00949 µM, first compound 0.0316 µM
# [8] = second compound 0.00949 µM, first compound 0.1 µM
# [9] = second compound 0.00949 µM, first compound 0.316 µM
# [10] = second compound 0.00949 µM, first compound 1 µM
# [11] = second compound 0.00949 µM, first compound 3.16 µM
# [12] = second compound 0.00949 µM, first compound 10 µM
# [13] = second compound 0.03 µM, first compound 0.0316 µM
# [14] = second compound 0.03 µM, first compound 0.1 µM
# [15] = second compound 0.03 µM, first compound 0.316 µM
# [16] = second compound 0.03 µM, first compound 1 µM
# [17] = second compound 0.03 µM, first compound 3.16 µM
# [18] = second compound 0.03 µM, first compound 10 µM
# [19] = second compound 0.0949 µM, first compound 0.0316 µM
# [20] = second compound 0.0949 µM, first compound 0.1 µM
# [21] = second compound 0.0949 µM, first compound 0.316 µM
# [22] = second compound 0.0949 µM, first compound 1 µM
# [23] = second compound 0.0949 µM, first compound 3.16 µM
# [24] = second compound 0.0949 µM, first compound 10 µM
# [25] = second compound 0.3 µM, first compound 0.0316 µM
# [26] = second compound 0.3 µM, first compound 0.1 µM
# [27] = second compound 0.3 µM, first compound 0.316 µM
# [28] = second compound 0.3 µM, first compound 1 µM
# [29] = second compound 0.3 µM, first compound 3.16 µM
# [30] = second compound 0.3 µM, first compound 10 µM
SMILES,IC50 (second compound 0.003 µM) [nM],IC50 (second compound 0.00949 µM) [nM],IC50 (second compound 0.03 µM) [nM],IC50 (second compound 0.0949 µM) [nM],IC50 (second compound 0.3 µM) [nM],"viability, T/C [1] [%]","viability, T/C [2] [%]","viability, T/C [3] [%]","viability, T/C [4] [%]","viability, T/C [5] [%]","viability, T/C [6] [%]","viability, T/C [7] [%]","viability, T/C [8] [%]","viability, T/C [9] [%]","viability, T/C [10] [%]","viability, T/C [11] [%]","viability, T/C [12] [%]","viability, T/C [13] [%]","viability, T/C [14] [%]","viability, T/C [15] [%]",other results
CC(C)n1c(=O)n(C)c2cnc3cc(F)c(-c4ccc(OCCCN5CCCCC5)nc4)cc3c21 + CC[C@@]1(O)C(=O)OCc2c1cc1n(c2=O)Cc2cc3c(CN(C)C)c(O)ccc3nc2-1,< 31.6,< 31.6,< 31.6,< 31.6,< 31.6,25.1,25.5,34.6,45.5,44.1,28.1,5.02,4.95,5.93,7.51,10.2,11.6,2.64,2.9,2.81,"viability, T/C [16]: 3.34%; viability, T/C [17]: 3.91%; viability, T/C [18]: 4.32%; viability, T/C [19]: 2.03%; viability, T/C [20]: 2.07%; viability, T/C [21]: 2.33%; viability, T/C [22]: 2.86%; viability, T/C [23]: 2.99%; viability, T/C [24]: 3.42%; viability, T/C [25]: 1.97%; viability, T/C [26]: 2.19%; viability, T/C [27]: 1.74%; viability, T/C [28]: 2.16%; viability, T/C [29]: 2.86%; viability, T/C [30]: 2.71%"
CC1COCCN1c1cc(-c2ccnn2C)c2ccnc(-c3ccn[nH]3)c2n1 (stereo not given) + CC[C@@]1(O)C(=O)OCc2c1cc1n(c2=O)Cc2cc3c(CN(C)C)c(O)ccc3nc2-1,< 31.6,< 31.6,< 31.6,< 31.6,< 31.6,16.2,9.61,6.33,5.32,2.8,3.12,6.81,5.86,5.29,3.16,2.62,4.77,3.3,3.5,3.31,"viability, T/C [16]: 2.97%; viability, T/C [17]: 2.42%; viability, T/C [18]: 2.82%; viability, T/C [19]: 2.58%; viability, T/C [20]: 2.23%; viability, T/C [21]: 2.26%; viability, T/C [22]: 2.14%; viability, T/C [23]: 2.41%; viability, T/C [24]: 2.01%; viability, T/C [25]: 2.18%; viability, T/C [26]: 2.1%; viability, T/C [27]: 2.02%; viability, T/C [28]: 2.7%; viability, T/C [29]: 1.91%; viability, T/C [30]: 1.92%"
COc1cc(C)[nH]c(=O)c1CN1CCc2c(Cl)cc(C(OC)C3COC3)c(Cl)c2C1=O (stereo not given) + CC[C@@]1(O)C(=O)OCc2c1cc1n(c2=O)Cc2cc3c(CN(C)C)c(O)ccc3nc2-1,> 10000,< 31.6,< 31.6,< 31.6,< 31.6,92.3,88.3,82.6,79.3,80.6,73.7,32.3,19.7,19.2,19.4,17.3,18.6,3.49,3.03,3.24,"viability, T/C [16]: 2.91%; viability, T/C [17]: 3.73%; viability, T/C [18]: 3.6%; viability, T/C [19]: 2.58%; viability, T/C [20]: 2.48%; viability, T/C [21]: 2.58%; viability, T/C [22]: 2.45%; viability, T/C [23]: 2.45%; viability, T/C [24]: 3.12%; viability, T/C [25]: 2.06%; viability, T/C [26]: 2.39%; viability, T/C [27]: 2.29%; viability, T/C [28]: 1.79%; viability, T/C [29]: 2.16%; viability, T/C [30]: 2.06%"
COc1ccc([C@@H](O)c2cc(-c3ncnc4cc(N5CCOCC5)ccc34)c(F)cc2Cl)nn1 + CC[C@@]1(O)C(=O)OCc2c1cc1n(c2=O)Cc2cc3c(CN(C)C)c(O)ccc3nc2-1,1650,< 31.6,< 31.6,< 31.6,< 31.6,88.7,83.7,85.3,67.1,27.6,10.9,15.9,15.2,17.8,12.2,8.75,5.67,3.61,6.14,3.33,"viability, T/C [16]: 3.01%; viability, T/C [17]: 2.56%; viability, T/C [18]: 2.82%; viability, T/C [19]: 2.02%; viability, T/C [20]: 2.62%; viability, T/C [21]: 2.15%; viability, T/C [22]: 2.18%; viability, T/C [23]: 1.69%; viability, T/C [24]: 2.92%; viability, T/C [25]: 1.88%; viability, T/C [26]: 1.98%; viability, T/C [27]: 1.62%; viability, T/C [28]: 1.27%; viability, T/C [29]: 1.46%; viability, T/C [30]: 1.93%"
